Test results reported in publication PMC11116414, “Impact of secretin receptor homo-dimerization on natural ligand binding” (Nature Communications, 2024).
No end group written: not given here.

Tested on: cysteine-containing SecR(G264A,I268A) constructs
Experiment: Cysteine trapping with SecR(G264A,I268A) cysteine constructs, intact COS-1 cells
Assay type: binding, human
Conditions: mean ± S.E.M.
Protocol: In short, 15 µg of each peptide were incubated with 1 mCi of Na^125I for 15 s in borate buffer (pH 9.0) using solid-state N-chlorobenzene sulfonamide (iodination beads), and radioactive peptide products were separated and purified using reversed-phase HPLC, to yield a mono-iodinated peak with a specific radioactivity of 2000 Ci/mmol.
Modified secretin receptor constructs were prepared by mutagenesis of human SecR(G264A,I268A) by introducing cysteine residues to replace each natural residue in the N-terminal stalk region, (extracellular loop 1) ECL1, ECL2, and ECL3 regions of the receptor[21]. Mutagenesis was performed using the QuikChange site-directed mutagenesis kit from Stratagene (La Jolla, CA), with the products verified by direct DNA sequencing.
Cysteine trapping is a technique in which cysteine residues incorporated into distinct positions within a peptide ligand and within its receptor are allowed to form disulfide bonds when two free cysteines are in proximity to each other with necessary distance and geometry. As noted above, this was performed with secretin peptides incorporating cysteines in positions 2, 5, 6 and 7[20],[21], and with a series of SecR mutants incorporating cysteines in all extracellular domains (75 distinct constructs in a TM4 mutant non-dimerizing SecR background). COS-1 cells were grown to approximate 85% confluence in 24-well tissue culture plates, and transfected with cysteine mutant receptor constructs using the PEI method. Assays were started by washing the cells with DMEM containing 5% Fetal Clone II before being incubated with 200 μl radiolabeled cysteine-containing probes (approximately 100,000 cpm per well) for 1.5 h at room temperature. The assays were terminated by washing the cells with ice-cold PBS, pH 7.4, and mixing with 60 µl SDS Laemmli sample buffer not containing dithiothreitol (DTT). Lysates were run on 10% SDS-polyacrylamide gels. Gels were then dried, and bands of interest were visualized by autoradiography, and specific bands were identified, and intensities quantified using ImageJ. Sites having labeling above background were determined using one-way ANOVA with Dunnett’s post-test, with P < 0.001 considered to be significant. The apparent molecular weights of the receptor bands were determined by interpolation with the mobility of the appropriate ProSieve protein markers.

Cys^2-[Tyr^10]secretin(1-27) (HCDGTFTSEYSRLREGARLQRLLQGLV; not fully specified; ends and bridges not checked; also: radioiodinated; UniProt P09683 28-54, looked up, variant S2C L10Y) [Cys^2-Sec, cysteine-containing secretin agonist probe, radioiodinated for cysteine trapping]
Intraloop labeling (A290C, ECL2, n = 3-5): < 1 percentage | Overall labeling (A290C, ECL2, n = 3-5): < 1 percentage | Intraloop labeling (A292C, ECL2, n = 3-5): < 1 percentage | Overall labeling (A292C, ECL2, n = 3-5, Cys5 significant (P < 0.0001)): < 1 percentage | Intraloop labeling (A365C, ECL3, n = 3-5): 22.5±19.5 percentage | Overall labeling (A365C, ECL3, n = 3-5, Cys5 significant (P < 0.0001)): 21.7±19.6 percentage | Intraloop labeling (D282C, ECL2, n = 3-5): < 1 percentage | Overall labeling (D282C, ECL2, n = 3-5): < 1 percentage | Intraloop labeling (D287C, ECL2, n = 3-5): < 1 percentage | Overall labeling (D287C, ECL2, n = 3-5): < 1 percentage | Intraloop labeling (D364C, ECL3, n = 3-5): 22.1±19.0 percentage | Overall labeling (D364C, ECL3, n = 3-5, Cys5 significant (P < 0.0001)): 21.3±19.1 percentage | Intraloop labeling (E281C, ECL2, n = 3-5): < 1 percentage | Overall labeling (E281C, ECL2, n = 3-5): < 1 percentage | Overall labeling (E363C, ECL3, n = 3-5): < 1 percentage | Intraloop labeling (E367C, ECL3, n = 3-5): < 1 percentage | Overall labeling (E367C, ECL3, n = 3-5): < 1 percentage | Intraloop labeling (E373C, ECL3, n = 3-5): 37.0±22.4 percentage | Overall labeling (E373C, ECL3, n = 3-5): 27.2±18.7 percentage | Intraloop labeling (F279C, ECL2, % of highest labeling within loop, n = 4 (Cys2), 5 (Cys5, Cys6), 3 (Cys7)): < 1 percentage | Overall labeling (F279C, ECL2, % of highest-labeled residue across all constructs, n = 4 (Cys2), 5 (Cys5, Cys6), 3 (Cys7)): < 1 percentage | Intraloop labeling (F358C, ECL3, n = 3-5): 36.3±17.6 percentage | Overall labeling (F358C, ECL3, n = 3-5): 29.0±11.6 percentage | Intraloop labeling (F360C, ECL3, n = 3-5): 22.9±8.3 percentage | Overall labeling (F360C, ECL3, n = 3-5): 19.4±6.5 percentage | Intraloop labeling (F371C, ECL3, n = 3-5): 14.7±12.5 percentage | Overall labeling (F371C, ECL3, n = 3-5): 14.5±12.5 percentage | Intraloop labeling (F372C, ECL3, n = 3-5): 33.7±20.5 percentage | Overall labeling (F372C, ECL3, n = 3-5): 23.5±15.3 percentage | Intraloop labeling (G284C, ECL2, n = 3-5): < 1 percentage | Overall labeling (G284C, ECL2, n = 3-5): < 1 percentage | Intraloop labeling (I288C, ECL2, n = 3-5): < 1 percentage | Overall labeling (I288C, ECL2, n = 3-5, Cys5 and Cys7 significant (P < 0.0001)): < 1 percentage | Intraloop labeling (I294C, ECL2, n = 3-5): < 1 percentage | Overall labeling (I294C, ECL2, n = 3-5): < 1 percentage | Intraloop labeling (I368C, ECL3, n = 3-5): < 1 percentage | Overall labeling (I368C, ECL3, n = 3-5): < 1 percentage | Intraloop labeling (L280C, ECL2, n = 3-5): < 1 percentage | Overall labeling (L280C, ECL2, n = 3-5): < 1 percentage | Intraloop labeling (L370C, ECL3, n = 3-5): 16.6±15.3 percentage | Intraloop labeling (L374C, ECL3, n = 3-5): 40.3±24.4 percentage | Overall labeling (L374C, ECL3, n = 3-5, Cys5, Cys6, Cys7 significant (P < 0.001)): 29.1±19.6 percentage | Intraloop labeling (N289C, ECL2, n = 3-5): < 1 percentage | Overall labeling (N289C, ECL2, n = 3-5): < 1 percentage | Intraloop labeling (N291C, ECL2, n = 3-5): < 1 percentage | Overall labeling (N291C, ECL2, n = 3-5): < 1 percentage | Intraloop labeling (Q369C, ECL3, n = 3-5): < 1 percentage | Overall labeling (Q369C, ECL3, n = 3-5): < 1 percentage | Intraloop labeling (S293C, ECL2, n = 3-5): < 1 percentage | Overall labeling (S293C, ECL2, n = 3-5): < 1 percentage | Intraloop labeling (S361C, ECL3, n = 3-5): < 1 percentage | Overall labeling (S361C, ECL3, n = 3-5): < 1 percentage | Intraloop labeling (V283C, ECL2, n = 3-5): < 1 percentage | Overall labeling (V283C, ECL2, n = 3-5): < 1 percentage | Intraloop labeling (W286C, ECL2, n = 3-5): < 1 percentage | Overall labeling (W286C, ECL2, n = 3-5): < 1 percentage | Intraloop labeling (W295C, ECL2, n = 3-5): 100±0 percentage | Overall labeling (W295C, ECL2, n = 3-5, Cys2, Cys5, Cys7 significant (P < 0.0001)): 93.0±7.0 percentage | Intraloop labeling (W296C, ECL2, n = 3-5): < 1 percentage | Overall labeling (W296C, ECL2, n = 3-5, Cys6 significant (P = 0.0003)): < 1 percentage
